Test results reported in PMC4136709 (ACS Chemical Biology, 2014).

Legend:
[1] = molecular target: T1, PhaCRe (Cupriavidus necator, UniProt P23608); assay: discontinuous DTNB assay of CoA release; type: biochemical
T1 sequence (P23608 1-589): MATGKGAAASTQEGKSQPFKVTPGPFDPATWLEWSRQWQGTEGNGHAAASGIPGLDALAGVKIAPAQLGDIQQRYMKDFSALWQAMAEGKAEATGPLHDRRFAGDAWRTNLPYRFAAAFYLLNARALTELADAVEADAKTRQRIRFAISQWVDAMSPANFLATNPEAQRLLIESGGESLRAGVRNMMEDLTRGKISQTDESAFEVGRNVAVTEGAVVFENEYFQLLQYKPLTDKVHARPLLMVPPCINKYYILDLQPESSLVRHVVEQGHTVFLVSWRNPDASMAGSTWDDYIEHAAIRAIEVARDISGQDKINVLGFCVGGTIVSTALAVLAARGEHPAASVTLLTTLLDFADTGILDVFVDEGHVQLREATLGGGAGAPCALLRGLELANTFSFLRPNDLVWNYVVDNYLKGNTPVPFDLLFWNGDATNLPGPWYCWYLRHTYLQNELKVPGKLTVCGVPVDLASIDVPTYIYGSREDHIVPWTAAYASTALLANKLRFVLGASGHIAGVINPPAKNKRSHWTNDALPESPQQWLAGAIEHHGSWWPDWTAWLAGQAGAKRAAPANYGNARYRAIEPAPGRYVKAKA

[2] = molecular target: T2, PhaECAv (Allochromatium vinosum, UniProt P45370); assay: discontinuous DTNB assay of CoA release; type: biochemical
T2 sequence (P45370 1-355): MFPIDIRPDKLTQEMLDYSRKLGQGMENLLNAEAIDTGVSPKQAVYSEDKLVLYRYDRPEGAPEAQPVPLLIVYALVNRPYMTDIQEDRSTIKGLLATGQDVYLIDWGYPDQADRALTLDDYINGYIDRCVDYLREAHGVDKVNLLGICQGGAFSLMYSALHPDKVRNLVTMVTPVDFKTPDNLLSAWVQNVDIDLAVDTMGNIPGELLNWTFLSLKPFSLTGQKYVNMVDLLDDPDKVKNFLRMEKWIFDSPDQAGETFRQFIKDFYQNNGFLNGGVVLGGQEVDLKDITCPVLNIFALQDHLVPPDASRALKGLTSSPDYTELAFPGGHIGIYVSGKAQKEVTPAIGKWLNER
T2 sequence (P45372 1-357 partner): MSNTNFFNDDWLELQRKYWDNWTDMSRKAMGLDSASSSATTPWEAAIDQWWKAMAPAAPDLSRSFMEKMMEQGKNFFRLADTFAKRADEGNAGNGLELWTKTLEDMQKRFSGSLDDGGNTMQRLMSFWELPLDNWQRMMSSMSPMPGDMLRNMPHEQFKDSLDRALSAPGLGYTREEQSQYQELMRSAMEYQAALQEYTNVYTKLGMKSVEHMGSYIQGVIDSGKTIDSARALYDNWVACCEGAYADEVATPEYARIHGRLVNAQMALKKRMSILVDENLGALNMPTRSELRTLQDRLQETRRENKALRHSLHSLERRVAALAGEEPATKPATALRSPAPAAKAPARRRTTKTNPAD

C[C@@H](O)CC(=O)CCCNC(=O)CCNC(=O)[C@H](O)C(C)(C)COP(=O)(O)OP(=O)(O)OC[C@H]1O[C@@H](n2cnc3c(N)ncnc32)[C@H](O)[C@@H]1OP(=O)(O)O [compound 1, HBCH2CoA]
Ki [1]: 14.1 µM | Ki [2]: 40.1 µM
